The target in assay [1] is opiate receptors. Kind of assay: Opiate binding assay (displacement of 3H-Naloxone). The arrangement: species or system rat. The conditions noted are these: Table 1, 3H-Naloxone, rat brain membranes. The protocol: The test compounds were evaluated for their ability to displace the binding of ^3 H-Naloxone to opiate receptors isolate from rat brain. Male rats [COBS CD(SD)BR] obtained from Charles River Laboratories (Portage, MI) were sacrificed by cervical dislocation. A purified homogenate of receptor membranes was prepared from the brains according to the method described by Chang and Cuatrecasas. (K.-J. Chang and P. Cuatrecases. Multiple Opiate Receptors: Enkephalins And Morphine Bind To Receptors Of Different Specificity. J. Biol. Chem. 254, 2610-2618 (1979).) The brains were homogenized in 10 volumes of 0.32M sucrose and centrifuged twice at 6,000×g for 15 minutes. Following centrifugation of the supernatants at 40,000×g for 30 minutes, the pellets were allowed to swell, then centrifuged at 6,000 and 40,000×g. This process was repeated. The final pellet was resuspended in 2 volumes of 50 mM tris HCl (pH 7.4). The homogenate was assayed for protein content according to the method of Itzhaki and Gill. R. F. Itzhaki and D. M. Gill. A Micro-Biuret Method for Estimating Proteins. Anal. Biochem. 9, […] (1964).
The binding of the test compounds to the receptor membrane preparation was measured using a modification of the method of Pert and Snyder. C. B. Pert and S. H. Snyder. Properties of Opiate-Receptor Binding in Rat Brain. Proc. Natl. Acad. Sci. 70, 2243-2247 (1973). The receptor assay was run using 1 nM ^3 H-Naloxone and 2 ml of tissue homogenate (0.5 mg/ml protein concentration). Levorphanol (1×10^-5 M) was used as the displacer for non-specific binding. Both the displacer and the test compounds were added in 0.02 ml volumes. The assay was run in 0.05M tris HCl (pH 7.4) ±100 mM NaCl. Total assay volume was 2.03 ml.
Samples were incubated at 25° C. for 60 min., cooled on ice 5 min. and subsequently filtered over Whatman GF/C glass fiber filters with 2.4 ml washes of cold buffer. The filters were then solubilized in 1 ml of NCS at 50° C. for 1 hour. After solubilization, the pH was adjusted with 0.1 ml of glacial acetic acid, 10 ml of PCS was added and the samples were counted in a Nuclear Chicago Mark II liquid scintillation counter. This method was used for the following test compounds: Example 4, Example 5, Example 27, Example 28, Example 38, Example 39, and the prior art compound (4).
A modification of this method was used for the following test compounds: Example 16, Example 17, Example 21, Example 22, Example 24, Example 30, Example 31. In this modification, the total assay volume was adjusted to 1.0 ml. Samples were cooled on ice for 10 minutes and dried at 50° C. for 30 minutes, then 10 mls of PCS was added and the samples counted in a liquid scinitillation counter.
The IC50 values, the concentration of the test compounds which inhibited ^3 H-Naloxone specific binding to the opiate receptor by 50%, were obtained from log-probit plots of concentration-response curves. D. J. Finney. Probit Analysis. Cambridge University Press, London, 1947.

In assay [2] the test system is mice. Put plainly: Writhing assay (phenylbenzoquinone). It counts as in vivo, mouse. The arrangement: key to Writhing Mouse Subc., effect of the screening dose / Writhing Mouse Oral, effect of the screening dose: Active: The test compound was rated active if writhing was inhibited (as described) in 5 of 10 mice. To be noted: Table 1; for Writhing Mouse Oral, effect of the screening dose: screening dose 10 mg/kg p.o.; for Writhing Mouse Subc., effect of the screening dose: screening dose 10 mg/kg s.c. How it is done: Male Charles River albino mice (CD-1/HAM/1LR) weighing between 20 and 30 grams were used. Thirty minutes after subcutaneous or intragastric administration of the test compound (0.1 ml/10 gram body weight), 0.025% (w/v) phenylbenzoquinone was injected intraperitoneally (0.1 ml/10 gram body weight). Five minutes later, each mouse was placed in a large glass beaker and the number of writhes that occurred in the subsequent ten minutes is counted. A writhe consisted of dorsoflexion of the back, extension of the hindlimbs, and strong contraction of the abdominal musculature. The test compound was considered to have produced analgesia in a mouse if the number of writhes elicited by phenylbenzoquinone was equal to or less than one-half the median number of writhes recorded for the saline-treated group that day. The results were expressed as the number of mice (out of a possible ten) in which the test compound produced analgesia. The test compound was rated active if writhing was inhibited (as described) in 5 of 10 mice.
The receptor binding and biological properties of the following compounds of this invention are illustrated in Tables 1 and 2 utilizing the previously described opiate binding, hot plate, tail flick, writhing assay, cholera test or hypertensive test. The standard screening dose for the hot plate test of Table 1 was 10 mg/kg i.v. and for the writhing assay was 10 mg/kg s.c. and p.o.

Assay [3] relates to spontaneous hypertensive rats (SHR). Kind of assay: Hypertensive test in spontaneous hypertensive rats (SHR). To be noted: Table 3; 10 mg/kg intravenously, one unanesthetized male SHR. The arrangement: key to Antihypertensive Properties, Result: Active: Any compound that resulted in a decrease in arterial blood pressure of 20 mm Hg or greater was considered active. It is filed as in vivo, rat. The protocol: A compound's ability to act as an antihypertensive agent was determined using spontaneous hypertensive rats (SHR). Male SHR were maintained in-house for 1 or more weeks before use and were between 11 and 16 weeks old. The test compound was administered intravenously and the initial mean arterial blood pressure was measured directly via an arterial catheter implanted immediately before administration of the compound. Blood pressure readings were made 5, 10 and 15 minutes after administration of the compound. […] Statistical comparisons were made using the unpaired student's test.
The following compounds of the invention were evaluated for their antihypertensive properties using the spontaneous hypertensive rat (SHR). […] The SHR test was essentially that described earlier. Each compound listed in Table 3, was administered intravenously to one unanesthetized, male, spontaneously hypertensive rat; the dosage was 10 mg/kg.

For “2,6-dimethyltyrosyl-N-(3-cyclohexylpropyl)-D-alaninamide, (2-methylpropyl)carbonate (ester) [Example 27]”, the IC50 in assay [1] is 2.7 nM. Further, in assay [2], the “Writhing Mouse Oral, effect of the screening dose” value (“Writhing Mouse Oral, effect” for short) is given as “Active” and the “Writhing Mouse Subc., effect of the screening dose” value (“Writhing Mouse Subc., effect” for short) is “Active”.

For “2,6-dimethyltyrosyl-N-(4-phenylbutyl)-D-alaninamide, hydrochloride [Example 43]”, in assay [2], the “Writhing Mouse Oral, effect” value is given as “Active” and the “Writhing Mouse Subc., effect” value was “Active”.

Consider “2,6-dimethyltyrosyl-N-[3-(2,6-dimethylphenyl)propyl]-D-alaninamide hydrochloride [Example 38]”, for which, in assay [1], the IC50 amounted to 160 nM. For the same compound, in assay [2], the “Writhing Mouse Oral, effect” value is given as “Active” and the “Writhing Mouse Subc., effect” value is recorded as “Active”.

Compound “2,6-dimethyltyrosyl-N-[3-(2,6-dimethylphenyl)propyl]-D-alaninamide, hydrochloride [Example 39]” gave an IC50 in assay [1] of 0.5 nM. For the same compound, in assay [2], the “Writhing Mouse Oral, effect” value is reported as “Active” and the “Writhing Mouse Subc., effect” value is recorded as “Active”.

For the compound “2-methyltyrosyl-N-(3-phenylpropyl)-D-alaninamide, hydrochloride [Example 16]”, the “Antihypertensive Properties, Result” value in assay [3] was “Active”.

In the case of `Cc1cc(O)cc(C)c1C[C@H](N)C(=O)N[C@H](C)C(=O)NCCCc1ccccc1.Cl` [Example 4, 2,6-dimethyltyrosyl-N-(3-phenylpropyl)-D-alaninamide hydrochloride], the “Antihypertensive Properties, Result” value in assay [3] is reported as “Active”. In assay [1] (hydrochloride), this compound came in with an IC50 of 50 nM. The ED50 in assay [2] (Mus musculus, sc, subcutaneous, read-out: Writhing Mouse Subc. (ED50)) stood at 0.58 mg/kg. For the same compound, in assay [2] (oral, hydrochloride), the “Writhing Mouse Oral (ED50)” value was found to be 2.39 mg/kg.

Source of the values: patent US4599325A, “Substituted tyrosyl alanine dipeptide amides” (G. D. Searle & Co., priority 1985, dated 1986).
